Data taken from the kinase profiling compilation of Christmann-Franck et al. (2016).

Columns and labels:
Experiment in all cases: KINOMEscan competition binding
Conditions in all cases: compound 10.0 µM
RPS6KA5 KD2 (human) = RPS6KA5 KD2 (human) (UniProt O75582)
CSNK1G2 (human) = CSNK1G2 (human) (UniProt P78368)
PDGFRA (human) = PDGFRA (human) (UniProt P16234)
MAP4K3 (human) = MAP4K3 (human) (UniProt Q8IVH8)
CDKL2 (human) = CDKL2 (human) (UniProt Q92772)
MAP2K4 (human) = MAP2K4 (human) (UniProt P45985)
EPHB3 (human) = EPHB3 (human) (UniProt P54753)
Chain of EPHB3 (human) (P54753 whole entry, looked up): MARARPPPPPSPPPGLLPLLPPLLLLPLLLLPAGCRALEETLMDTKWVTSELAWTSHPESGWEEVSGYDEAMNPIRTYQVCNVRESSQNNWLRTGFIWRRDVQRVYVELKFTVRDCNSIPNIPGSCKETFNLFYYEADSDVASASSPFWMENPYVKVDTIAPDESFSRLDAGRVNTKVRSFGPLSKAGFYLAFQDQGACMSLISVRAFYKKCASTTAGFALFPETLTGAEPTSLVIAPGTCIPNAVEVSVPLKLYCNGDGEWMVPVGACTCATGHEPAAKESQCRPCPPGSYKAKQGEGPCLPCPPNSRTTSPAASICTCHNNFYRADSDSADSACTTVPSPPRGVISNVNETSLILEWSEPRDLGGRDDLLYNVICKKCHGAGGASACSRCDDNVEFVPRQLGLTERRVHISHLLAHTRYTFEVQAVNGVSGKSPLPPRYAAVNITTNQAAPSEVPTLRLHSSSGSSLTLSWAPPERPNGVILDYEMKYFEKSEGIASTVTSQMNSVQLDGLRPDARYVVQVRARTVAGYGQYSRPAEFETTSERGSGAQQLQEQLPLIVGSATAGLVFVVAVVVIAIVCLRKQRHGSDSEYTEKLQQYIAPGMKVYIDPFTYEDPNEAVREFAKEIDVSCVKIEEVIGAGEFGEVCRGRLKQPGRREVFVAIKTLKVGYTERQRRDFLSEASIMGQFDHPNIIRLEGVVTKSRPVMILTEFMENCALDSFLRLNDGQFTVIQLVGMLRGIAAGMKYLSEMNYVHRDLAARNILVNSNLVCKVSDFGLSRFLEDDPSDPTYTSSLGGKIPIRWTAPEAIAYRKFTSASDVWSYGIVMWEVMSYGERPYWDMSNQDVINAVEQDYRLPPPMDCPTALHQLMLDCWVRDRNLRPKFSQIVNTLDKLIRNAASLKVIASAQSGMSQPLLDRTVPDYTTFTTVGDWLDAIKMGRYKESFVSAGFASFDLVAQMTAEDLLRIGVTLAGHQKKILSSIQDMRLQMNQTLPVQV

STK32B (human) = STK32B (human) (UniProt Q9NY57)
Chain of STK32B (human) (Q9NY57 whole entry, looked up): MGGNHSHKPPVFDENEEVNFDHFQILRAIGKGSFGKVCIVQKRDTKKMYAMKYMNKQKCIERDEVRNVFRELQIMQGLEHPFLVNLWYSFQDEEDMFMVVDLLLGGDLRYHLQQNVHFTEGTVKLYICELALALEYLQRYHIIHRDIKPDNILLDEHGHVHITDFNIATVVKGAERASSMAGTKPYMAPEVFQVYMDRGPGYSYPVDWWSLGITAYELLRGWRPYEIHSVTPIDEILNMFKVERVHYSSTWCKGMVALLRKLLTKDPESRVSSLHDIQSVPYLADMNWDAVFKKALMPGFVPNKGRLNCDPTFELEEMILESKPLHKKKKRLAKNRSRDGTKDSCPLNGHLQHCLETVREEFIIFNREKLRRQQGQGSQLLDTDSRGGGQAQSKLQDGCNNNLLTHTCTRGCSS

KDR (human) = KDR (human) (UniProt P35968)
ROCK2 (human) = ROCK2 (human) (UniProt O75116)
MAPK6 (human) = MAPK6 (human) (UniProt Q16659)
CLK4 (human) = CLK4 (human) (UniProt Q9HAZ1)
CDK5 (human) = CDK5 (human) (UniProt Q00535)
Chain of CDK5 (human) (Q00535 whole entry, looked up): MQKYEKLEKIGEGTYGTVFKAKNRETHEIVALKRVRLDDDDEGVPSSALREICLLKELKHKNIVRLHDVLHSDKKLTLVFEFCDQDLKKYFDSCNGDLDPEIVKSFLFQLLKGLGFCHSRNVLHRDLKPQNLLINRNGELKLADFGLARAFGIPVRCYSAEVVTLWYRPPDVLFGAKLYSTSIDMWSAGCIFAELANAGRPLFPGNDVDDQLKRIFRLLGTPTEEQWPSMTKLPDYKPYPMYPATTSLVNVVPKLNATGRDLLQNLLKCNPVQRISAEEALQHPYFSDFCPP

INSR (human) = INSR (human) (UniProt P06213)
CSK (human) = CSK (human) (UniProt P41240)
NTRK3 (human) = NTRK3 (human) (UniProt Q16288)
MYO3B (human) = MYO3B (human) (UniProt Q8WXR4)
RIPK4 (human) = RIPK4 (human) (UniProt P57078)
RPS6KA2 KD2 (human) = RPS6KA2 KD2 (human) (UniProt Q15349)
FGFR4 (human) = FGFR4 (human) (UniProt P22455)
PAK1 (human) = PAK1 (human) (UniProt Q13153)
PRKCQ (human) = PRKCQ (human) (UniProt Q04759)
FGFR2 (human) = FGFR2 (human) (UniProt P21802)
[1] = molecular target: TYK2 JH2 pseudokinase (human) (UniProt P29597)
[2] = system: KIT (human), P10721 [V559D]
MYLK4 (human) = MYLK4 (human) (UniProt Q86YV6)
CAMKK2 (human) = CAMKK2 (human) (UniProt Q96RR4)
MAP4K4 (human) = MAP4K4 (human) (UniProt O95819)
STK10 (human) = STK10 (human) (UniProt O94804)
RPS6KA4 KD2 (human) = RPS6KA4 KD2 (human) (UniProt O75676)
MAP3K12 (human) = MAP3K12 (human) (UniProt Q12852)
BMPR1A (human) = BMPR1A (human) (UniProt P36894)
Chain of BMPR1A (human) (P36894 whole entry, looked up): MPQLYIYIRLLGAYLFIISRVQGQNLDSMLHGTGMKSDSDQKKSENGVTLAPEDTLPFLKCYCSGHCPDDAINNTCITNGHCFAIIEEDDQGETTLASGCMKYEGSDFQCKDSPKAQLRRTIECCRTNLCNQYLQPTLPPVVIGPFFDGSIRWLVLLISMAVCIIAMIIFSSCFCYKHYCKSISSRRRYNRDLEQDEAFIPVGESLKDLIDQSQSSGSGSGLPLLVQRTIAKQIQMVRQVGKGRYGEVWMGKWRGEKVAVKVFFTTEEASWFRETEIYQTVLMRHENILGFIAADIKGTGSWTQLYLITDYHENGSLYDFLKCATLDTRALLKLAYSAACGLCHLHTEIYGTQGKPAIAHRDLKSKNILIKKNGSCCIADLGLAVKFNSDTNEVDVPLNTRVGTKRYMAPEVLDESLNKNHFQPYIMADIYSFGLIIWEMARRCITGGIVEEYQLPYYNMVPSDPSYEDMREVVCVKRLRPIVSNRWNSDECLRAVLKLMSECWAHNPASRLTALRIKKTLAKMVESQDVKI

MAP3K9 (human) = MAP3K9 (human) (UniProt P80192)
Chain of MAP3K9 (human) (P80192 whole entry, looked up): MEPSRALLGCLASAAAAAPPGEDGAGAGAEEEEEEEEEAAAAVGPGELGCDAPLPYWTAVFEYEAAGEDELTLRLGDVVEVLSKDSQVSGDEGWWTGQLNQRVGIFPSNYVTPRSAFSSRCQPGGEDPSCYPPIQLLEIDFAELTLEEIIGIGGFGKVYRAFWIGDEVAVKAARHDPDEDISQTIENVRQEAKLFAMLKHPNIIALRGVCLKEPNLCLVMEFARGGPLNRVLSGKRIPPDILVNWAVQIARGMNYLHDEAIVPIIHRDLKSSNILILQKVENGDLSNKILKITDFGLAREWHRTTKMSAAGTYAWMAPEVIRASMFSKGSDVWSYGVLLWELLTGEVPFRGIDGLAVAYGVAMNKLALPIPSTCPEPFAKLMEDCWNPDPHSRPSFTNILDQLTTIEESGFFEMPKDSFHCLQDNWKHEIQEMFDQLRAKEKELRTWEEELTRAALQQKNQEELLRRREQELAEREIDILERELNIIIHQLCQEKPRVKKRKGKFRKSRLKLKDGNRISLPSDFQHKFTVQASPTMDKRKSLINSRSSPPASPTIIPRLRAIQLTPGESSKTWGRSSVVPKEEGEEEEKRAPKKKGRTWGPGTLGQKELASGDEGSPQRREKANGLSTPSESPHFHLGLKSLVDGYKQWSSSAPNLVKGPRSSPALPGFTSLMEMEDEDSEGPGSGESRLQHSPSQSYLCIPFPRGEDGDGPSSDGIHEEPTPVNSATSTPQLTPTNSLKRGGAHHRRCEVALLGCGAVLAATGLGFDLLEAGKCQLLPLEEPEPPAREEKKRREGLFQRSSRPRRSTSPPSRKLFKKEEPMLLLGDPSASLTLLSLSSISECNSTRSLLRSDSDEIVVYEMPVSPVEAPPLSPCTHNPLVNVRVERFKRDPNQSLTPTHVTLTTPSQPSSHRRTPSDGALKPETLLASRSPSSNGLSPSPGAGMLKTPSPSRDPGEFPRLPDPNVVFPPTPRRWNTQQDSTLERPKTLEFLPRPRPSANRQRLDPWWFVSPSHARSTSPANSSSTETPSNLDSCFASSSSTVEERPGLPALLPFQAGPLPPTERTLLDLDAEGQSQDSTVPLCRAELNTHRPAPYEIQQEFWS

AURKA (human) = AURKA (human) (UniProt O14965)
CHEK2 (human) = CHEK2 (human) (UniProt O96017)
IRAK3 (human) = IRAK3 (human) (UniProt Q9Y616)
TESK1 (human) = TESK1 (human) (UniProt Q15569)
PIP5K1A (human) = PIP5K1A (human) (UniProt Q99755)
RPS6KA3 KD1 (human) = RPS6KA3 KD1 (human) (UniProt P51812)
PAK2 (human) = PAK2 (human) (UniProt Q13177)

Chain of MAP4K3 (human) (Q8IVH8 whole entry, looked up): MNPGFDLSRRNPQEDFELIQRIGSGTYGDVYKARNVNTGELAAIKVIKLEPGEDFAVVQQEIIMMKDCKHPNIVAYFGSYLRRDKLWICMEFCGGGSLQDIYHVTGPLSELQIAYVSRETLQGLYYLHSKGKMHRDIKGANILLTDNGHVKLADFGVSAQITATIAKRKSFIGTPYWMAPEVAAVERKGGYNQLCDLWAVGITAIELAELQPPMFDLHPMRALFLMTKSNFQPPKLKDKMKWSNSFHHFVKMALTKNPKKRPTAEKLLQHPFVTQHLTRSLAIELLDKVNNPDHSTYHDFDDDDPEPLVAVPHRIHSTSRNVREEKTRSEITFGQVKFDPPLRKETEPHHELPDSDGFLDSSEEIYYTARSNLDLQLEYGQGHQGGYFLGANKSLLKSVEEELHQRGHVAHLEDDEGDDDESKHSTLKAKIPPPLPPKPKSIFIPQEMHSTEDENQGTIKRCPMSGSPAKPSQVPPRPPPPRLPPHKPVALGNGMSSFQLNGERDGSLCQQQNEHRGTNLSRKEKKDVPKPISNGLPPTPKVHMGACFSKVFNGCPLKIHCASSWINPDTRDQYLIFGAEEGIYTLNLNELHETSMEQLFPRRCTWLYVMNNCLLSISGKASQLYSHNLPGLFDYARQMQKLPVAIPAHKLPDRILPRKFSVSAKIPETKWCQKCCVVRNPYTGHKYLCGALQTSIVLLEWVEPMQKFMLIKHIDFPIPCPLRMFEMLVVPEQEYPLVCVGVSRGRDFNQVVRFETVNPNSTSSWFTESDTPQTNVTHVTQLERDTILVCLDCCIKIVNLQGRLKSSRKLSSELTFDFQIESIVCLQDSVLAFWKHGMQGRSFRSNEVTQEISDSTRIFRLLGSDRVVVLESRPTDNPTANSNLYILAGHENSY
Chain of RPS6KA5 KD2 (human) (O75582 whole entry, looked up): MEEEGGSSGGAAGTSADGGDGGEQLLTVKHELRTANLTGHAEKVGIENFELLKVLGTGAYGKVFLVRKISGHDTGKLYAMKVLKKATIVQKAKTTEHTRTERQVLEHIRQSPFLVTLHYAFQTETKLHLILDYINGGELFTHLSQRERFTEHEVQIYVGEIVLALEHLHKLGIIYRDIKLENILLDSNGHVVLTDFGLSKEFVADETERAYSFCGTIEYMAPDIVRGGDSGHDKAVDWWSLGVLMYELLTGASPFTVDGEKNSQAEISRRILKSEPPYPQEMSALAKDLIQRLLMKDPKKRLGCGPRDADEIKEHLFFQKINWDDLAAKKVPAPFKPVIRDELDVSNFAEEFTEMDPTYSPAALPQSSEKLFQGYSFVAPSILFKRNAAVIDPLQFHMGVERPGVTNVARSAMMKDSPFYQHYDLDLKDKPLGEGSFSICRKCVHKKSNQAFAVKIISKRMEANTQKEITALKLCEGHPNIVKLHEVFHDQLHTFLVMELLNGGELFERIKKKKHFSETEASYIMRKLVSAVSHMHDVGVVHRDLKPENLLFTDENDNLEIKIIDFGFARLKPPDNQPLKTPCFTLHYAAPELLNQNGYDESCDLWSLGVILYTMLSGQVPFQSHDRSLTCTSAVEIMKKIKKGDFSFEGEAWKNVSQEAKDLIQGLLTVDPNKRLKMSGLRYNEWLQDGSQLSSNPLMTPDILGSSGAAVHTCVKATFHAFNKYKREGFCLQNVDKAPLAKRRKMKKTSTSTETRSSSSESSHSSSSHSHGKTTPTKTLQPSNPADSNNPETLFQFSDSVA

SMILES | kinase still bound, per cent of control (RPS6KA5 KD2 (human)) [%] | kinase still bound, per cent of control (CSNK1G2 (human)) [%] | kinase still bound, per cent of control (PDGFRA (human)) [%] | kinase still bound, per cent of control (MAP4K3 (human)) [%] | kinase still bound, per cent of control (CDKL2 (human)) [%] | kinase still bound, per cent of control (MAP2K4 (human)) [%] | kinase still bound, per cent of control (EPHB3 (human)) [%] | kinase still bound, per cent of control (STK32B (human)) [%] | kinase still bound, per cent of control (KDR (human)) [%] | kinase still bound, per cent of control (ROCK2 (human)) [%] | kinase still bound, per cent of control (MAPK6 (human)) [%] | kinase still bound, per cent of control (CLK4 (human)) [%] | kinase still bound, per cent of control (CDK5 (human)) [%] | kinase still bound, per cent of control (INSR (human)) [%] | kinase still bound, per cent of control (CSK (human)) [%] | kinase still bound, per cent of control (NTRK3 (human)) [%] | kinase still bound, per cent of control (MYO3B (human)) [%] | kinase still bound, per cent of control (RIPK4 (human)) [%] | kinase still bound, per cent of control (RPS6KA2 KD2 (human)) [%] | kinase still bound, per cent of control (FGFR4 (human)) [%] | further results
C[C@@H](Oc1cc(-n2cnc3ccc(CN4CCN(C)CC4)cc32)sc1C(N)=O)c1ccccc1C(F)(F)F | 34 | 97 | 100 | 59 | 90 | 86 | 100 | 100 | 100 | 16 | 100 | 59 | 100 | 100 | 100 | 100 | 100 | 52 | 74 | 100 | kinase still bound, per cent of control (PAK1 (human)): 100%; kinase still bound, per cent of control (PRKCQ (human)): 47%; kinase still bound, per cent of control (FGFR2 (human)): 75%; kinase still bound, per cent of control [1]: 100%; kinase still bound, per cent of control [2]: 38%; kinase still bound, per cent of control (MYLK4 (human)): 78%; kinase still bound, per cent of control (CAMKK2 (human)): 66%; kinase still bound, per cent of control (MAP4K4 (human)): 64%; kinase still bound, per cent of control (STK10 (human)): 0%; kinase still bound, per cent of control (RPS6KA4 KD2 (human)): 0.55%; kinase still bound, per cent of control (MAP3K12 (human)): 57%; kinase still bound, per cent of control (BMPR1A (human)): 28%; kinase still bound, per cent of control (MAP3K9 (human)): 17%; kinase still bound, per cent of control (AURKA (human)): 100%; kinase still bound, per cent of control (CHEK2 (human)): 69%; kinase still bound, per cent of control (IRAK3 (human)): 38%; kinase still bound, per cent of control (TESK1 (human)): 100%; kinase still bound, per cent of control (PIP5K1A (human)): 14%; kinase still bound, per cent of control (RPS6KA3 KD1 (human)): 0.5%; kinase still bound, per cent of control (PAK2 (human)): 38%
C=CC(=O)Nc1cccc(Oc2nc(Nc3ccc(N4CCN(C)CC4)cc3OC)ncc2Cl)c1 | 100 | 100 | 100 | 29 | 100 | 100 | 100 | 100 | 100 | 27 | 100 | 12 | 100 | 17 | 100 | 100 | 100 | 100 | 28 | 100 | kinase still bound, per cent of control (PAK1 (human)): 100%; kinase still bound, per cent of control (PRKCQ (human)): 100%; kinase still bound, per cent of control (FGFR2 (human)): 100%; kinase still bound, per cent of control [1]: 100%; kinase still bound, per cent of control [2]: 26%; kinase still bound, per cent of control (MYLK4 (human)): 24%; kinase still bound, per cent of control (CAMKK2 (human)): 10%; kinase still bound, per cent of control (MAP4K4 (human)): 100%; kinase still bound, per cent of control (STK10 (human)): 100%; kinase still bound, per cent of control (RPS6KA4 KD2 (human)): 16%; kinase still bound, per cent of control (MAP3K12 (human)): 100%; kinase still bound, per cent of control (BMPR1A (human)): 100%; kinase still bound, per cent of control (MAP3K9 (human)): 35%; kinase still bound, per cent of control (AURKA (human)): 28%; kinase still bound, per cent of control (CHEK2 (human)): 8.8%; kinase still bound, per cent of control (IRAK3 (human)): 34%; kinase still bound, per cent of control (TESK1 (human)): 100%; kinase still bound, per cent of control (PIP5K1A (human)): 11%; kinase still bound, per cent of control (RPS6KA3 KD1 (human)): 100%; kinase still bound, per cent of control (PAK2 (human)): 100%
